In US6969609B1 (priority 1998, dated 2005):

Test system: CAP-M8-specific CD8^+ effector T-cell line
Format: cell-based, murine

## TNF-α
  increase in peptide-specific proliferation over unmanipulated DC: 28%
